# Measurements published in patent EP0394553A2, “Use of fluorine containing pyridone carboxylic acid derivatives for preparing a medicament for the treatment of HIV infections” (DAIICHI PHARMACEUTICAL CO., LTD., priority 1989, dated 1990).
# Where two headings read alike, the source gives them in different places.
# Tested on: HIV (LAV 1)
# Experiment: microbe, parasite or virus in culture
# Conditions: for Viable cell count / Viral antigen-positive cell percentage: 4-day addition; for viability at 1 µg/mL / viability at 10 µg/mL: Human immunodeficiency virus 1, CCRF-CEM
# Procedure: Human T cell-derived, T4 antigen-positive CEM cells (provided by the Institut Pasteur, France) were used as host cells of HIV. Cell culture was carried out in a carbon dioxide-containing atmosphere in an incubator maintained at 37°C according to a conventional method [cf. […] The culture supernatant (5×10⁶ TCID₅₀/ml) obtained by subjecting CEM cells to HIV (LAV 1) infection and stored at -70°C was used as the HIV source.
# The medium for cell culture (10 ml) placed in a plastic culture flask (25 cm²) was inoculated with CEM cells at a cell density of 2.5×10⁵ cells/ml. After 3 days of incubation, the culture was transferred to a 15-ml centrifuge tube and subjected to centrifugation at 1,000 revolutions per minute for 5 minutes for sedimentation of cells and removal of the culture medium.
# The stock viral suspension was added to the host cells thus prepared to an MOI of 0.05 and the mixture was maintained at 37°C for 90 minutes with stirring at 30-minute intervals for viral adsorption. The medium was added to HIV-infected cells to a cell density of 5.0×10⁵ cells/ml to give an HIV-infected cell suspension.
# A mixture (1.0 ml) of the three constituents mentioned below was added to each well of a 24-well plastic culture plate and the test substance final concentration was adjusted to 10 mcg/ml, 5 mcg/ml, 2.5 mcg/ml or 1 mcg/ml. The "no addition" wells (0 mcg/ml) served as controls.
# After 4 days of incubation following viral infection, the cells in each well on the 24-well culture plate were suspended uniformly by pipetting and a 0.5-ml portion of the suspension was separated. A 2.0-ml portion of test substance-free fresh medium was added to the remaining 0.5-ml portion of the cell suspension, followed by incubation.
# Seven days after viral infection, pipetting was performed to give a uniform cell suspension in each well and a 0.5-ml portion of the suspension was separated.
# Incubation was continued and, 10 days after viral infection, a uniform cell suspension was produced in the same manner in each well and a 1.5-ml portion thereof was separated. A fresh 2.0-ml portion of the medium free of (or containing) the test substance was added to the well, followed by further incubation.
# Fifteen days after viral infection, the cells in each well were suspended uniformly in the same manner in the medium and a 2.0-ml portion of the suspension was separated. A fresh 2.0-ml portion of the medium free of (or containing) the test substance was added to the remaining 0.5 ml of the cell suspension and incubation was continued.
# Medium exchange was performed in the same manner 20 days and 25 days after viral infection.
# The cell suspensions collected 4 days, 7 days, 10 days, 20 days and 30 days after viral infection were tested for viable cell count and viable cell percentage by trypan blue staining. At the same time, viral antigen-positive cell percentage determination was carried out by immunofluorescence using an anti-HIV antiserum isolated from a healthy carrier of HIV.
# The numerical values given each is the mean for the respective two wells on the culture plate. The viable cell count is the total cell count minus the count of dead cells stained with trypan blue. The viable cell percentage is the percentage of viable cells among all the cells including dead cells. The viral antigen-positive cell percentage is the percentage of cells indicating antigen expression as found among all the cells including dead cells.
# [1] = 96 h, read-out: Viable cell percentage, 1 mcg/ml, 4-day addition, after 4 days
# [2] = 96 h, read-out: Viable cell percentage, 10 mcg/ml, 4-day addition, after 4 days
# [3] = read-out: Viable cell percentage, 1 mcg/ml, 4-day addition, after 7 days
# [4] = read-out: Viable cell percentage, 1 mcg/ml, 4-day addition, after 10 days
# [5] = read-out: Viable cell percentage, 1 mcg/ml, 4-day addition, after 20 days
# [6] = read-out: Viable cell percentage, 1 mcg/ml, 4-day addition, after 30 days
# [7] = read-out: Viable cell percentage, 10 mcg/ml, 4-day addition, after 7 days
# [8] = read-out: Viable cell percentage, 10 mcg/ml, 4-day addition, after 10 days
# [9] = read-out: Viable cell percentage, 10 mcg/ml, 4-day addition, after 20 days
# [10] = read-out: Viable cell percentage, 10 mcg/ml, 4-day addition, after 30 days
Structure (SMILES),"Viable cell count (1 mcg/ml, after 4 days)","Viral antigen-positive cell percentage (1 mcg/ml, after 4 days)","Viable cell count (1 mcg/ml, after 7 days)","Viral antigen-positive cell percentage (1 mcg/ml, after 7 days)","Viable cell count (1 mcg/ml, after 10 days)","Viable cell count (1 mcg/ml, after 20 days)","Viable cell count (1 mcg/ml, after 30 days)","Viable cell count (10 mcg/ml, after 4 days)","Viral antigen-positive cell percentage (10 mcg/ml, after 4 days)","Viable cell count (10 mcg/ml, after 7 days)","Viral antigen-positive cell percentage (10 mcg/ml, after 7 days)","Viable cell count (10 mcg/ml, after 10 days)","Viral antigen-positive cell percentage (10 mcg/ml, after 10 days)","Viable cell count (10 mcg/ml, after 20 days)","Viral antigen-positive cell percentage (10 mcg/ml, after 20 days)","Viable cell count (10 mcg/ml, after 30 days)","Viral antigen-positive cell percentage (10 mcg/ml, after 30 days)",viability at 1 µg/mL [1],viability at 10 µg/mL [2],viability at 1 µg/mL [3],other results
"CCCN1CCN(c2c(F)cc3c(=O)c(C(=O)O)cn4c3c2OCC4C)CC1 (racemic) [IIIb, (±)-9-Fluoro-3-methyl-10-(4-n-propyl-1-piperazinyl)-7-oxo-2,3-dihydro-7H-pyrido[1,2,3-de][1,4]benzoxazine-6-carboxylic acid]",220 × 10⁴ cells/ml,88%,53 × 10⁴ cells/ml,62%,19 × 10⁴ cells/ml,25 × 10⁴ cells/ml,14 × 10⁴ cells/ml,190 × 10⁴ cells/ml,80%,62 × 10⁴ cells/ml,50%,240 × 10⁴ cells/ml,40%,320 × 10⁴ cells/ml,13%,300 × 10⁴ cells/ml,4%,89%,89%,75%,viability at 1 µg/mL [4]: 27%; viability at 1 µg/mL [5]: 81%; viability at 1 µg/mL [6]: 36%; viability at 10 µg/mL [7]: 70%; viability at 10 µg/mL [8]: 83%; viability at 10 µg/mL [9]: 92%; viability at 10 µg/mL [10]: 94%
"CCN1CCN(c2c(F)cc3c(=O)c(C(=O)O)cn4c3c2OCC4C)CC1 (racemic) [IIIa, (±)-9-Fluoro-3-methyl-10-(4-ethyl-1-piperazinyl)-7-oxo-2,3-dihydro-7H-pyrido[1,2,3-de][1,4]benzoxazine-6-carboxylic acid]",240 × 10⁴ cells/ml,72%,37 × 10⁴ cells/ml,65%,19 × 10⁴ cells/ml,20 × 10⁴ cells/ml,14 × 10⁴ cells/ml,180 × 10⁴ cells/ml,82%,61 × 10⁴ cells/ml,75%,260 × 10⁴ cells/ml,26%,310 × 10⁴ cells/ml,18%,330 × 10⁴ cells/ml,6%,92%,88%,57%,"Viral antigen-positive cell percentage (1 mcg/ml, after 10 days): 30%; Viral antigen-positive cell percentage (1 mcg/ml, after 20 days): 20%; viability at 1 µg/mL [4]: 30%; viability at 1 µg/mL [5]: 78%; viability at 1 µg/mL [6]: 40%; viability at 10 µg/mL [7]: 74%; viability at 10 µg/mL [8]: 93%; viability at 10 µg/mL [9]: 91%; viability at 10 µg/mL [10]: 94%"
"CC(C)N1CCN(c2c(F)cc3c(=O)c(C(=O)O)cn4c3c2OCC4C)CC1 (racemic) [IIId, (±)-9-Fluoro-3-methyl-10-(4-isopropyl-1-piperazinyl)-7-oxo-2,3-dihydro-7H-pyrido[1,2,3-de][1,4]benzoxazine-6-carboxylic acid]",250 × 10⁴ cells/ml,72%,50 × 10⁴ cells/ml,70%,24 × 10⁴ cells/ml,12 × 10⁴ cells/ml,9 × 10⁴ cells/ml,190 × 10⁴ cells/ml,78%,60 × 10⁴ cells/ml,50%,280 × 10⁴ cells/ml,25%,290 × 10⁴ cells/ml,11%,300 × 10⁴ cells/ml,4%,91%,88%,62%,viability at 1 µg/mL [4]: 28%; viability at 1 µg/mL [5]: 60%; viability at 1 µg/mL [6]: 31%; viability at 10 µg/mL [7]: 67%; viability at 10 µg/mL [8]: 91%; viability at 10 µg/mL [9]: 95%; viability at 10 µg/mL [10]: 94%
"CCCCN1CCN(c2c(F)cc3c(=O)c(C(=O)O)cn4c3c2OCC4C)CC1 (racemic) [IIIc, (±)-9-Fluoro-3-methyl-10-(4-n-butyl-1-piperazinyl)-7-oxo-2,3-dihydro-7H-pyrido[1,2,3-de][1,4]benzoxazine-6-carboxylic acid]",220 × 10⁴ cells/ml,82%,46 × 10⁴ cells/ml,70%,28 × 10⁴ cells/ml,10 × 10⁴ cells/ml,10 × 10⁴ cells/ml,200 × 10⁴ cells/ml,80%,51 × 10⁴ cells/ml,47%,250 × 10⁴ cells/ml,9%,340 × 10⁴ cells/ml,9%,320 × 10⁴ cells/ml,3%,87%,92%,60%,viability at 1 µg/mL [4]: 33%; viability at 1 µg/mL [5]: 55%; viability at 1 µg/mL [6]: 32%; viability at 10 µg/mL [7]: 67%; viability at 10 µg/mL [8]: 93%; viability at 10 µg/mL [9]: 93%; viability at 10 µg/mL [10]: 95%
